Test results from EPA's CvTdb concentration-time database.

How the values were obtained:
Experiment in all cases: concentration in plasma after dosing
Rat [1] = tested on: Rat
Rat [2] = conditions: 0.5 h; dosed: Nitrite; 40 mg/kg; oral; Male; F344
Rat [3] = conditions: 2 min; dosed: Nitrite; 20 mg/kg; iv; Male; F344

COc1ccc(C(=O)c2ccccc2)c(O)c1 [2-Hydroxy-4-methoxybenzophenone]
concentration in plasma [ng/mL], Rat [1], dosed: 2-Hydroxy-4-methoxybenzophenone, F344
Conditions | 0.25 h | 2 h | 2.5 min | 3 h | 4 h | 6 h | 10 h | 10 min
8 mg/kg, iv, Female | 1560 | 75.6 | – | – | 36.8 | – | – | 2540
8 mg/kg, iv, Male | 1860 | 99.2 | – | – | – | – | 70.1 | 72.5
100 mg/kg, oral, Female | 86.5 | – | – | 14.5 | 10.6 | – | – | 113
100 mg/kg, oral, Male | 171 | – | – | 17.3 | 42.4 | – | – | 140
250 mg/kg, oral, Female | 331 | – | – | 71.9 | 87.1 | – | – | 32.7
250 mg/kg, oral, Male | 82.8 | – | – | 54.6 | 65.2 | – | – | 19.4
500 mg/kg, oral, Female | 231 | – | 7.13 | – | 452 | – | 49.7 | 113
500 mg/kg, oral, Male | 614 | – | – | – | 450 | 225 | 65.2 | 116

O=N[O-] [Nitrite]
Conditions | concentration in plasma [ng/mL]
Rat [2] | 1900
Rat [3] | 15100

concentration in plasma [ng/mL], Rat [1], dosed: Nitrite
Conditions | Female | Male
0.5 h, 20 mg/kg, iv, F344 | – | 2600
0.5 h, 40 mg/kg, oral, F344 | 6000 | 1900
0.5 h, 80 mg/kg, oral, F344 | 11300 | –
0.75 h, 20 mg/kg, iv, F344 | – | 2400
1 h, 20 mg/kg, iv, F344 | – | 2000
1 h, 40 mg/kg, oral, F344 | 2900 | 3400
1 h, 80 mg/kg, oral, F344 | 9700 | –
2 h, 40 mg/kg, oral, F344 | 2600 | –
2 h, 80 mg/kg, oral, F344 | 7500 | –
2 min, 20 mg/kg, iv, F344 | – | 14800
2 min, 40 mg/kg, oral, F344 | 3100 | –
2 min, 40 mg/kg, oral, Harlan Sprague-Dawley | 2200 | –
2 min, 80 mg/kg, oral, F344 | 8200 | –
4 h, 80 mg/kg, oral, F344 | 2400 | –
5 min, 20 mg/kg, iv, F344 | – | 3100
5 min, 40 mg/kg, oral, F344 | 4800 | –
5 min, 40 mg/kg, oral, Harlan Sprague-Dawley | 1700 | –
5 min, 80 mg/kg, oral, F344 | 12400 | –
6 h, 80 mg/kg, oral, F344 | 2000 | –
8 h, 80 mg/kg, oral, F344 | 1700 | –
10 h, 80 mg/kg, oral, F344 | 1700 | –
10 min, 20 mg/kg, iv, F344 | – | 4300
10 min, 40 mg/kg, oral, F344 | 5900 | 3400
10 min, 40 mg/kg, oral, Harlan Sprague-Dawley | 2500 | –
10 min, 80 mg/kg, oral, F344 | 7500 | –
20 min, 20 mg/kg, iv, F344 | – | 900
